The text below walks through data of PubChem BioAssay (NCI).

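A five-concentration, 48-hour dose response in 96-well plates underlies each endpoint, interpolated linearly between surrounding concentrations. GI50: concentration for 50% inhibition of growth. At the TGI there is no net growth.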

Among the test systems are EKVX NSCLC; M14 melanoma; MDA-MB-231 breast; SK-MEL-2 melanoma; HCC-2998 colon; HL-60(TB) leukemia; OVCAR-4 ovarian; SR leukemia.
Holding throughout (assay): inhibition of tumour cell growth, NCI panel, 48 h

In the case of `CCNCCNc1cc(C2CCCC2)c(C#N)c2nc3ccccc3n12`, the GI50 is 4.73 µM in the experiment on EKVX NSCLC; 2.06 µM in the experiment on M14 melanoma; 2.37 µM in the experiment with MDA-MB-231 breast; 3.91 µM in the experiment with SK-MEL-2 melanoma; 3.48 µM in the experiment with HCC-2998 colon; 2.01 µM with HL-60(TB) leukemia. Moreover, the GI50 with OVCAR-4 ovarian was 3.22 µM; in the experiment with SR leukemia, 1.66 µM. In addition, the TGI in the experiment with EKVX NSCLC was found to be 21.5 µM; in the experiment with M14 melanoma it was 4.08 µM; in the experiment on MDA-MB-231 breast it was 5.27 µM; with SK-MEL-2 melanoma, 16.1 µM; with HCC-2998 colon, 15.3 µM; in the experiment with HL-60(TB) leukemia, 4.3 µM. In addition, the TGI was found to be 13 µM with OVCAR-4 ovarian and 6.13 µM in the experiment with SR leukemia.
With `COc1ccc(OC)c2c3c(ncc12)-c1cc2c(cc1C3)OCO2`, the GI50 is 93.4 µM in the experiment with EKVX NSCLC; 0.316 µM with M14 melanoma; 4.76 µM with MDA-MB-231 breast; greater than 100 µM in the experiment on SK-MEL-2 melanoma; greater than 100 µM with HCC-2998 colon; 24.8 µM in the experiment with HL-60(TB) leukemia. Also, the figures for the GI50 in the experiment on OVCAR-4 ovarian and in the experiment with SR leukemia were greater than 100 µM and 4.22 µM, respectively. Moreover, the TGI in the experiment with EKVX NSCLC, in the experiment with M14 melanoma, in the experiment with MDA-MB-231 breast, in the experiment on SK-MEL-2 melanoma, with HCC-2998 colon and in the experiment on HL-60(TB) leukemia was greater than 100 µM each time. Moreover, the TGI in the experiment on OVCAR-4 ovarian and with SR leukemia was greater than 100 µM each time.
On to `COc1cccc(-c2cc(NCc3ccc4c(c3)OCO4)nc(N)n2)c1`, for which the GI50 is 3.33 µM in the experiment on EKVX NSCLC; 0.0479 µM in the experiment with M14 melanoma; 0.228 µM in the experiment with MDA-MB-231 breast; 0.219 µM with SK-MEL-2 melanoma; 0.137 µM in the experiment with HCC-2998 colon; 0.0324 µM in the experiment on HL-60(TB) leukemia. The GI50 in the experiment on OVCAR-4 ovarian was 0.225 µM; in the experiment on SR leukemia it was 0.0453 µM. The TGI in the experiment with EKVX NSCLC was found to be 52.3 µM; with M14 melanoma it was 1.91 µM; in the experiment on MDA-MB-231 breast, 13.7 µM; with SK-MEL-2 melanoma, 17.9 µM; with HCC-2998 colon, 2.9 µM; in the experiment with HL-60(TB) leukemia, 0.296 µM. The TGI with OVCAR-4 ovarian amounted to 27.5 µM; in the experiment on SR leukemia, 75 µM.
Consider `Cn1cc(-c2nc(-c3cn(C)c4ncccc34)cs2)c2cc(F)ccc21`, for which the GI50 in the experiment with EKVX NSCLC is 1.93 µM; in the experiment on M14 melanoma it was 0.777 µM; with MDA-MB-231 breast it was 3.01 µM; in the experiment on SK-MEL-2 melanoma, 3.96 µM; in the experiment with HCC-2998 colon, 0.962 µM; with HL-60(TB) leukemia it was 1.67 µM. In addition, the values for the GI50 in the experiment on OVCAR-4 ovarian and in the experiment with SR leukemia were 0.746 µM and 0.565 µM, respectively. Besides, the TGI was 74.3 µM in the experiment on EKVX NSCLC; 12.4 µM with M14 melanoma; 22.2 µM with MDA-MB-231 breast; 37.2 µM in the experiment on SK-MEL-2 melanoma; 24.2 µM with HCC-2998 colon; 88.7 µM in the experiment on HL-60(TB) leukemia. Moreover, the TGI was greater than 100 µM in the experiment on OVCAR-4 ovarian and 17.8 µM in the experiment on SR leukemia.
For the compound `COc1ccc2c(c1)N(CCO)C1=C(C(=O)OC1)C2c1cccc(Br)c1` (stereo not drawn), the GI50 is 0.694 µM in the experiment with EKVX NSCLC; 0.0612 µM with M14 melanoma; 0.372 µM in the experiment with MDA-MB-231 breast; 0.0595 µM in the experiment on SK-MEL-2 melanoma; 0.184 µM in the experiment with HCC-2998 colon; 0.0671 µM in the experiment on HL-60(TB) leukemia. Also, the results for the GI50 with OVCAR-4 ovarian and in the experiment on SR leukemia were 0.123 µM and 0.0826 µM, respectively. The TGI is greater than 100 µM with EKVX NSCLC; 0.597 µM with M14 melanoma; 19.4 µM in the experiment with MDA-MB-231 breast; 3.24 µM in the experiment with SK-MEL-2 melanoma; 15.7 µM in the experiment on HCC-2998 colon; 0.601 µM with HL-60(TB) leukemia. Also, the TGI in the experiment on OVCAR-4 ovarian was greater than 100 µM; with SR leukemia it was 55.7 µM.
In the case of `NS(=O)(=O)c1ccc(NCc2cnc3ccccc3c2)cc1`, the TGI in the experiment with EKVX NSCLC was greater than 100 µM; in the experiment on M14 melanoma, greater than 100 µM; with MDA-MB-231 breast, greater than 100 µM; with SK-MEL-2 melanoma it was greater than 100 µM; in the experiment on HCC-2998 colon, greater than 100 µM; with HL-60(TB) leukemia, 3.96 µM. The TGI in the experiment with OVCAR-4 ovarian and in the experiment with SR leukemia was greater than 100 µM each time.
Turning to `O=C(O)C#Cc1ccc([N+](=O)[O-])cc1`, the TGI in the experiment on EKVX NSCLC, with M14 melanoma, in the experiment with MDA-MB-231 breast, in the experiment on SK-MEL-2 melanoma, in the experiment on HCC-2998 colon and in the experiment on HL-60(TB) leukemia was greater than 100 µM in each case. Besides, the TGI with OVCAR-4 ovarian and in the experiment with SR leukemia was greater than 100 µM each time.
For the compound `O=C1[C@H](c2ccccc2)C2c3ccccc3CCN12` (stereo partly drawn), the GI50 in the experiment on EKVX NSCLC, in the experiment with M14 melanoma, in the experiment on MDA-MB-231 breast, in the experiment with SK-MEL-2 melanoma, in the experiment with HCC-2998 colon and in the experiment on HL-60(TB) leukemia was greater than 100 µM each time. Moreover, the GI50 in the experiment with OVCAR-4 ovarian and with SR leukemia was greater than 100 µM in each case. Moreover, the TGI in the experiment with EKVX NSCLC, with M14 melanoma, in the experiment with MDA-MB-231 breast, in the experiment on SK-MEL-2 melanoma, in the experiment on HCC-2998 colon and in the experiment on HL-60(TB) leukemia was greater than 100 µM throughout. Moreover, the TGI in the experiment on OVCAR-4 ovarian and with SR leukemia was greater than 100 µM throughout.
In the case of `OCCCNC(=S)Nc1ccc(-c2nc3ccccc3s2)cc1`, the GI50 in the experiment on EKVX NSCLC was 17 µM; in the experiment on M14 melanoma, 23.3 µM; with MDA-MB-231 breast, 16.5 µM; in the experiment with SK-MEL-2 melanoma, 31.6 µM; in the experiment with HCC-2998 colon, 13.7 µM; in the experiment with HL-60(TB) leukemia it was 25.5 µM. For the same compound, the GI50 with OVCAR-4 ovarian was 28.1 µM; with SR leukemia, 14.6 µM. The TGI in the experiment with EKVX NSCLC is 83.2 µM; with M14 melanoma, 49 µM; in the experiment on MDA-MB-231 breast, 43.5 µM; with SK-MEL-2 melanoma it was greater than 100 µM; with HCC-2998 colon, 26.8 µM; in the experiment with HL-60(TB) leukemia, greater than 100 µM. Moreover, the TGI in the experiment with OVCAR-4 ovarian was greater than 100 µM; in the experiment with SR leukemia, 50 µM.
`O=C(Nc1ncc(Cc2ccc(Cl)cc2)s1)c1ccc2c(c1)OCCO2`: the GI50 with EKVX NSCLC was 0.412 µM; with M14 melanoma it was 0.0409 µM; with MDA-MB-231 breast, 0.176 µM; in the experiment on SK-MEL-2 melanoma it was 0.343 µM; in the experiment with HCC-2998 colon, 0.223 µM; in the experiment with HL-60(TB) leukemia it was 0.0537 µM. Also, the GI50 in the experiment on OVCAR-4 ovarian was 0.547 µM; with SR leukemia, 0.0528 µM. The TGI was greater than 100 µM in the experiment on EKVX NSCLC; 75.3 µM with M14 melanoma; 3.15 µM in the experiment with MDA-MB-231 breast; greater than 69.4 µM in the experiment on SK-MEL-2 melanoma; 20.3 µM in the experiment on HCC-2998 colon; greater than 52.1 µM with OVCAR-4 ovarian. The same compound came in with a TGI in the experiment with SR leukemia greater than 100 µM.
